Assay results: article PMC6941952, “A homogeneous bioluminescent immunoassay to probe cellular signaling pathway regulation” (Communications Biology, 2020)

Test system: phospho-IκBα (Ser32)
Assay: NanoBiT cell-based immunoassay, phosphorylated IκBα in MCF-7 cells
Parameters: species or system human
Settings: plate #2; for Subtract reagent background / Raw data: TNF
Protocol: Prior to NanoBiT Cell-Based Immunoassay, 50,000 cells were seeded in 160 µl of complete growth media per well of a 96-well plate and incubated overnight. The cells were checked under microscope and it was determined that 50,000 cells per well in 96-well plate is under 90% confluency for all cells tested. If necessary, the cell culture media were replaced with serum-free media after the cells were stably adherent on the plate and incubated overnight. To treat cells with activators or inhibitors, medium was changed to 30 µl of medium containing inhibitors. If activation of a specific pathway is needed, the cells were stimulated with 10 µl of medium containing activators. To lyse the cells, 10 µl of lysis buffer containing 0.1% digitonin diluted in 1X immunoassay buffer with protease and phosphatase inhibitors was added and the plates were mixed vigorously for 20 min. Then, 50 µl of an antibody mix containing two primary antibodies against the target protein and NanoBiT detecting antibodies (0.3 µl each per well), diluted in 1X immunoassay buffer was added to the lysates. The plates were incubated at 23 °C for 90 min, followed by the addition of 25 µl of Nano-Glo® reagent consisting of Nano-Glo® Luciferase Assay Substrate mixed with 1X immunoassay buffer. Luminescence was measured using a plate-reading luminometer.
In all, 50,000 MCF-7 cells were seeded in 160 µl complete growth medium per well of a 96-well plate and incubated overnight. Half of the cells were treated with 50 ng per ml TNFα and half with vehicle. Cells were lysed as described above and a mixture of NanoBiT secondary antibodies with primary antibodies at the matrix concentrations described in Fig. 2a were added. After 90 min incubation, the Nano-Glo® reagent was added to the reactions as described above and luminescence was measured using a plate-reading luminometer.
Single dose or dose response inhibitor treatments were performed prior to activation of the pathways as follows. For IκBα, the cells were treated in 30 µl medium with IKK16 or MG132 for 60 min before the addition of 10 µl of DMEM containing appropriate concentration of TNFα. To measure phosphorylation of AKT or STAT3, the corresponding NanoBiT immunoassays were developed with MCF-7 or A431 cells, respectively, according the same scheme used to develop the IκBα assay using the primary antibodies for AKT and STAT3 described in the reagents section. For the AKT assay, MCF-7 cells were incubated overnight in phenol-red free DMEM medium (Gibco #21063-029) without serum. Treatment with LY294002 was performed in 30 µl medium and cells were incubated for 60 min before the addition of 1 µM Insulin. To measure STAT3 phosphorylation, A431 cells were incubated overnight in DMEM medium without serum. […] After addition of the stimulators, the cells were incubated for additional times as follows. IκBα phosphorylation and degradation analyses required both time courses and single time points as described in figures. […] The NanoBiT immunoassay protocol was followed as described above.
All 96-well assay plates were read using a GloMax® 96 Microplate Luminometer from Promega. The instrument was set to 0.5 s integration time. In order to obtain net change of signal, the reagent background values (signal from the well containing all reagent except primary antibodies) were subtracted from the sample values. To plot and analyze the data, Microsoft Excel and GraphPad Prism® Software were used. IC50 values were determined by using a nonlinear regression fit to a sigmoidal dose response (variable slope).

[1] = IkB Ab #2 75 ng/ml, P-IkB Ab #1 300 ng/ml
[2] = IkB Ab #2 75 ng/ml, P-IkB Ab #1 600 ng/ml
[3] = IkB Ab #2 75 ng/ml, P-IkB Ab #1 1200 ng/ml
[4] = IkB Ab #2 150 ng/ml, P-IkB Ab #1 75 ng/ml
[5] = IkB Ab #2 150 ng/ml, P-IkB Ab #1 150 ng/ml
[6] = IkB Ab #2 150 ng/ml, P-IkB Ab #1 300 ng/ml
[7] = IkB Ab #2 150 ng/ml, P-IkB Ab #1 600 ng/ml
[8] = IkB Ab #2 150 ng/ml, P-IkB Ab #1 1200 ng/ml
[9] = IkB Ab #2 300 ng/ml, P-IkB Ab #1 75 ng/ml
[10] = IkB Ab #2 300 ng/ml, P-IkB Ab #1 150 ng/ml
[11] = IkB Ab #2 300 ng/ml, P-IkB Ab #1 300 ng/ml
[12] = IkB Ab #2 300 ng/ml, P-IkB Ab #1 600 ng/ml
[13] = IkB Ab #2 300 ng/ml, P-IkB Ab #1 1200 ng/ml
[14] = IkB Ab #2 600 ng/ml, P-IkB Ab #1 75 ng/ml
[15] = IkB Ab #2 600 ng/ml, P-IkB Ab #1 150 ng/ml
[16] = IkB Ab #2 600 ng/ml, P-IkB Ab #1 300 ng/ml
[17] = IkB Ab #2 600 ng/ml, P-IkB Ab #1 600 ng/ml
[18] = IkB Ab #2 600 ng/ml, P-IkB Ab #1 1200 ng/ml
[19] = IkB Ab #2 1200 ng/ml, P-IkB Ab #1 75 ng/ml
[20] = IkB Ab #2 1200 ng/ml, P-IkB Ab #1 150 ng/ml
[21] = IkB Ab #2 1200 ng/ml, P-IkB Ab #1 300 ng/ml
[22] = IkB Ab #2 1200 ng/ml, P-IkB Ab #1 600 ng/ml
[23] = IkB Ab #2 1200 ng/ml, P-IkB Ab #1 1200 ng/ml

Substance TNFα has a Subtract reagent background (IkB Ab #2 75 ng/ml, P-IkB Ab #1 150 ng/ml) of 2170, a Raw data [1] of 21130 and a Subtract reagent background [1] of 2610. It also gave a Raw data [2] of 21060, a Subtract reagent background [2] of 2540 and a Raw data [3] of 19400. For the same substance, the Subtract reagent background [3] was 880, the Raw data [4] was 21700 and the Subtract reagent background [4] was 3180. For the same substance, the Raw data [5] was 21690, the Subtract reagent background [5] was 3170 and the Raw data [6] was 22220. The Subtract reagent background [6] was 3700, the Raw data [7] was 20830 and the Subtract reagent background [7] was 2310. It also gave a Raw data [8] of 19240, a Subtract reagent background [8] of 720 and a Raw data [9] of 22450. The Subtract reagent background [9] was 3930, the Raw data [10] was 22650 and the Subtract reagent background [10] was 4130. The Raw data [11] was 23650, the Subtract reagent background [11] was 5130 and the Raw data [12] was 20040. For the same substance, the Subtract reagent background [12] was 1520, the Raw data [13] was 19000 and the Subtract reagent background [13] was 480. The Raw data [14] was 22640, the Subtract reagent background [14] was 4120 and the Raw data [15] was 23720. For the same substance, the Subtract reagent background [15] was 5200, the Raw data [16] was 23520 and the Subtract reagent background [16] was 5000. For the same substance, the Raw data [17] was 22360, the Subtract reagent background [17] was 3840 and the Raw data [18] was 20110. The Subtract reagent background [18] was 1590, the Raw data [19] was 22600 and the Subtract reagent background [19] was 4080. For the same substance, the Raw data [20] was 23950, the Subtract reagent background [20] was 5430 and the Raw data [21] was 23940. The Subtract reagent background [21] was 5420, the Raw data [22] was 23180 and the Subtract reagent background [22] was 4660. The Raw data [23] was 21820, the Subtract reagent background [23] was 3300 and the “Fold change (TNF-treated /Non-treated)” value (IkB Ab #2 (Mouse) 75 ng/ml, P-IkB Ab #1 (Rabbit) 75 ng/ml) was 1.212. The “Fold change (TNF-treated /Non-treated)” value (IkB Ab #2 (Mouse) 75 ng/ml, P-IkB Ab #1 (Rabbit) 75 ng/ml, listed as TNF) was 1.2, the “Fold change (TNF-treated /Non-treated)” value (IkB Ab #2 (Mouse) 75 ng/ml, P-IkB Ab #1 (Rabbit) 150 ng/ml) was 1.09 and the “Fold change (TNF-treated /Non-treated)” value (IkB Ab #2 (Mouse) 75 ng/ml, P-IkB Ab #1 (Rabbit) 150 ng/ml, listed as TNF) was 1.1. For the same substance, the “Fold change (TNF-treated /Non-treated)” value (IkB Ab #2 (Mouse) 75 ng/ml, P-IkB Ab #1 (Rabbit) 300 ng/ml) was 1.197, the “Fold change (TNF-treated /Non-treated)” value (IkB Ab #2 (Mouse) 75 ng/ml, P-IkB Ab #1 (Rabbit) 300 ng/ml, listed as TNF) was 1.2 and the “Fold change (TNF-treated /Non-treated)” value (IkB Ab #2 (Mouse) 75 ng/ml, P-IkB Ab #1 (Rabbit) 600 ng/ml) was 1.104. The “Fold change (TNF-treated /Non-treated)” value (IkB Ab #2 (Mouse) 75 ng/ml, P-IkB Ab #1 (Rabbit) 1200 ng/ml) was 0.4356, the “Fold change (TNF-treated /Non-treated)” value (IkB Ab #2 (Mouse) 150 ng/ml, P-IkB Ab #1 (Rabbit) 150 ng/ml) was 1.447 and the “Fold change (TNF-treated /Non-treated)” value (IkB Ab #2 (Mouse) 150 ng/ml, P-IkB Ab #1 (Rabbit) 150 ng/ml, listed as TNF) was 1.4. The “Fold change (TNF-treated /Non-treated)” value (IkB Ab #2 (Mouse) 150 ng/ml, P-IkB Ab #1 (Rabbit) 300 ng/ml) was 1.271, the “Fold change (TNF-treated /Non-treated)” value (IkB Ab #2 (Mouse) 150 ng/ml, P-IkB Ab #1 (Rabbit) 300 ng/ml, listed as TNF) was 1.3 and the “Fold change (TNF-treated /Non-treated)” value (IkB Ab #2 (Mouse) 150 ng/ml, P-IkB Ab #1 (Rabbit) 600 ng/ml) was 0.8684. The “Fold change (TNF-treated /Non-treated)” value (IkB Ab #2 (Mouse) 150 ng/ml, P-IkB Ab #1 (Rabbit) 600 ng/ml, listed as TNF) was 0.9, the “Fold change (TNF-treated /Non-treated)” value (IkB Ab #2 (Mouse) 150 ng/ml, P-IkB Ab #1 (Rabbit) 1200 ng/ml) was 0.2618 and the “Fold change (TNF-treated /Non-treated)” value (IkB Ab #2 (Mouse) 150 ng/ml, P-IkB Ab #1 (Rabbit) 1200 ng/ml, listed as TNF) was 0.262. The “Fold change (TNF-treated /Non-treated)” value (IkB Ab #2 (Mouse) 300 ng/ml, P-IkB Ab #1 (Rabbit) 150 ng/ml) was 1.886, the “Fold change (TNF-treated /Non-treated)” value (IkB Ab #2 (Mouse) 300 ng/ml, P-IkB Ab #1 (Rabbit) 150 ng/ml, listed as TNF) was 1.9 and the “Fold change (TNF-treated /Non-treated)” value (IkB Ab #2 (Mouse) 300 ng/ml, P-IkB Ab #1 (Rabbit) 300 ng/ml) was 2.24. For the same substance, the “Fold change (TNF-treated /Non-treated)” value (IkB Ab #2 (Mouse) 300 ng/ml, P-IkB Ab #1 (Rabbit) 300 ng/ml, listed as TNF) was 2.2, the “Fold change (TNF-treated /Non-treated)” value (IkB Ab #2 (Mouse) 300 ng/ml, P-IkB Ab #1 (Rabbit) 600 ng/ml) was 1.197 and the “Fold change (TNF-treated /Non-treated)” value (IkB Ab #2 (Mouse) 300 ng/ml, P-IkB Ab #1 (Rabbit) 600 ng/ml, listed as TNF) was 1.2. For the same substance, the “Fold change (TNF-treated /Non-treated)” value (IkB Ab #2 (Mouse) 300 ng/ml, P-IkB Ab #1 (Rabbit) 1200 ng/ml) was 0.3429, the “Fold change (TNF-treated /Non-treated)” value (IkB Ab #2 (Mouse) 300 ng/ml, P-IkB Ab #1 (Rabbit) 1200 ng/ml, listed as TNF) was 0.343 and the “Fold change (TNF-treated /Non-treated)” value (IkB Ab #2 (Mouse) 600 ng/ml, P-IkB Ab #1 (Rabbit) 75 ng/ml) was 2.559. For the same substance, the “Fold change (TNF-treated /Non-treated)” value (IkB Ab #2 (Mouse) 600 ng/ml, P-IkB Ab #1 (Rabbit) 75 ng/ml, listed as TNF) was 2.6, the “Fold change (TNF-treated /Non-treated)” value (IkB Ab #2 (Mouse) 600 ng/ml, P-IkB Ab #1 (Rabbit) 150 ng/ml) was 2.826 and the “Fold change (TNF-treated /Non-treated)” value (IkB Ab #2 (Mouse) 600 ng/ml, P-IkB Ab #1 (Rabbit) 150 ng/ml, listed as TNF) was 2.8. The “Fold change (TNF-treated /Non-treated)” value (IkB Ab #2 (Mouse) 600 ng/ml, P-IkB Ab #1 (Rabbit) 300 ng/ml) was 2.155, the “Fold change (TNF-treated /Non-treated)” value (IkB Ab #2 (Mouse) 600 ng/ml, P-IkB Ab #1 (Rabbit) 300 ng/ml, listed as TNF) was 2.2 and the “Fold change (TNF-treated /Non-treated)” value (IkB Ab #2 (Mouse) 600 ng/ml, P-IkB Ab #1 (Rabbit) 600 ng/ml) was 2.11. The “Fold change (TNF-treated /Non-treated)” value (IkB Ab #2 (Mouse) 600 ng/ml, P-IkB Ab #1 (Rabbit) 600 ng/ml, listed as TNF) was 2.1 and the “Fold change (TNF-treated /Non-treated)” value (IkB Ab #2 (Mouse) 600 ng/ml, P-IkB Ab #1 (Rabbit) 1200 ng/ml) was 0.8281.
